According to US20260226034A1 (The Rockefeller University, priority 2023, published 2026):

Molecular target: NSP14 (Severe acute respiratory syndrome coronavirus 2, UniProt P0DTD1)
Test: NSP14 MTase inhibition assay at 37° C. (MTase-Glo SAH detection)
Assay type: biochemical, SARS-CoV-2
Conditions: 0.3 nM NSP14, 2.5 μM SAM, 2.5 μM GpppA RNA, 45 min at 37° C.; read-out: Nsp14 Mtase Inh. IC50
Procedure: NSP14 MTase assay at 37° C. (0.3 nM NSP14 as final enzyme concentration)
The NSP14 MTase assay at 37° C. is carried out in 384-well flat bottom polystyrene microplates (Greiner, 781075). Per well, 10 μl of 1×NSP14 reaction buffer (50 mM Tris-HCl, pH 7.5, 6 mM KCl, 1.25 mM MgCl2, 1 mM DTT, and 0.01% Tween-20) are dispensed in columns 1-23 using a Thermo Multidrop Combi dispenser (Thermo Scientific). 0.1 μl of serially diluted compounds in DMSO are dispensed into columns 1-22 of the assay microplates with a Janus 384 MDT NanoHead (PerkinElmer). In wells of column 23, which serve as negative controls, no compounds are added.
The NSP14 reaction is started by adding 4 μl of a 4× substrate solution containing S-adenosyl methionine (SAM, 10 μM) and GpppA RNA (10 μM) prepared in 1×NSP14 reaction buffer. Any addition of reagents is followed by a 30 second centrifugation at 500×g to ensure that all liquid was collected at the bottom of the well. The final concentrations of NSP14, SAM, and GpppA RNA are 0.3 nM, 2.5 μM, and 2.5 μM, respectively. The final reaction volume is 16 μl. Plates are sealed and incubated for 45 min at 37° C.
For SAH detection, 1 μl 5× MTase-Glo™ Reagent (Promega) is added to each well, plates are mixed for 1-2 minutes and incubated at room temperature for 30 minutes. 5 μl of room-temperature MTase-Glo™ Detection Solution (Promega) is added to each well, plates are mixed for 1-2 minutes and incubated at room temperature for 30 minutes. Luminescence signals of each well are recorded in relative light units (RLUs) using a Biotek Synergy Neo plate reader (BioTek, Winooski, VT). The SAH production is normalized against the positive control (PK, column 24) and negative control (NK, column 23) as follows: normalized % inhibition=100×(RLUsample-RLUaverageNK)/(RLUaveragePK-RLUaverageNK).

`Cc1c(S(=O)(=O)c2ccc3[nH]ncc3c2)cc(C(=O)N[C@@H]2CCN(c3cnc(F)cn3)C2)n1C` [A.50] and `Cc1c(S(=O)(=O)c2ccc3[nH]ncc3c2)cc(C(=O)N[C@@H]2CCN(c3ccc(F)cn3)C2)n1C` [A.51] cannot be ordered by IC50: less than 0.15 nM for the first, less than 0.15 nM for the second.

First: Cc1c(S(=O)(=O)c2ccc3[nH]ncc3c2)cc(C(=O)N[C@H]2CN(c3ccc(C#N)cn3)CC23CC3)n1C [A.110]
Second: Cc1c(S(=O)(=O)c2ccc3[nH]ncc3c2)cc(C(=O)N[C@@H]2CCN(c3ccc(C#N)cn3)C2)n1C [A.72]
The IC50 of the first is 2.4-fold higher: 0.7 nM for the first, 0.29 nM for the second. The second is the more potent here.

`Cc1c(S(=O)(=O)c2ccc3[nH]ncc3c2)cc(C(=O)N[C@H]2C[C@@H](Nc3ncc(F)cn3)C2)n1C` [A.97] and `Cc1c(S(=O)(=O)c2ccc3[nH]ncc3c2)cc(C(=O)N[C@H]2CN(c3ncc(F)cn3)C[C@H]2O)n1C` [A.89] are within 1.5-fold of each other in IC50: 13 nM for the first, 14 nM for the second.

Compared with `Cc1c(S(=O)(=O)c2ccc3[nH]ncc3c2)cc(C(=O)N[C@@H]2CCN(c3cccc(F)c3)C2)n1C` [A.87], `Cc1c(S(=O)(=O)c2ccc3[nH]ncc3c2)cc(C(=O)N[C@@H]2CCN(c3cccc(C(F)F)c3)C2)n1C` [A.86] is 3.3-fold higher in IC50: 0.75 nM for the first, 2.5 nM for the second.

`Cc1c(S(=O)(=O)c2ccccc2)cc(C(=O)NCc2c(F)ccc3cnn(C)c23)n1C` [A.7, N-((6-fluoro-1-methyl-1H-indazol-7-yl)methyl)-1,5-dimethyl-4-(phenylsulfonyl)-1H-pyrrole-2-carboxamide] and `Cc1c(S(=O)(=O)c2cccc(Cl)c2)cc(C(=O)NCc2cccc3cnn(C)c23)n1C` [A.9] are within 1.5-fold of each other in IC50: 1.7 nM for the first, 2.1 nM for the second.

Compared with `Cc1c(S(=O)(=O)c2ccc3c(cnn3C)c2)cc(C(=O)NCc2c(F)ccc3ncn(C4CC4)c23)n1C` [A.4, N-[(3-cyclopropyl-5-fluoro-benzimidazol-4-yl)methyl]-1,5-dimethyl-4-(1-methylindazol-5-yl)sulfonyl-pyrrole-2-carboxamide], `Cc1c(S(=O)(=O)c2ccc3[nH]ncc3c2)cc(C(=O)N[C@@H]2CCN(c3ccc(F)nc3)C2)n1C` [A.56] is 2.5-fold lower in IC50: 0.5 nM for the first, 0.2 nM for the second.

First: Cc1c(S(=O)(=O)c2ccc3[nH]ncc3c2)cc(C(=O)N[C@@H]2CCN(c3ncc(C#N)cn3)C2)n1C [A.49]
Second: Cc1c(S(=O)(=O)c2ccc3[nH]ncc3c2)cc(C(=O)N[C@@H]2CCN(c3nccc(C#N)n3)C2)n1C [A.45]
The IC50 of the first is 1.7-fold higher: 0.63 nM for the first, 0.37 nM for the second.

Going from `Cc1c(S(=O)(=O)c2ccc3[nH]ncc3c2)cc(C(=O)N[C@@H]2CCN(c3cccnn3)C2)n1C` [A.99] to `COc1ccc(N2CC[C@@H](NC(=O)c3cc(S(=O)(=O)c4ccc5[nH]ncc5c4)c(C)n3C)C2)nn1` [A.88], the IC50 falls from 0.38 nM to less than 0.15 nM.

Going from `Cc1c(S(=O)(=O)c2ccc3[nH]ncc3c2)cc(C(=O)N[C@@H]2CCN(c3ccnc(C(F)F)c3)C2)n1C` [A.107] to `Cc1c(S(=O)(=O)c2ccc3[nH]nc(F)c3c2)cc(C(=O)N[C@@H]2CCN(c3ccnnc3)C2)n1C` [A.112], the IC50 rises from 0.17 nM to 0.53 nM (3.1-fold). The first is the more potent here.

`CN=S(=O)(c1ccc2[nH]ncc2c1)c1cc(C(=O)N[C@@H]2CCN(c3ncc(F)cn3)C2)n(C)c1C` (some centres unmarked) [A.70] was tested, and the IC50 was 3.9 nM.

Same assay, conditions: 37° C., 0.3 nM NSP14, 2.5 μM SAM, 2.5 μM GpppA RNA; read-out: Nsp14 Mtase Inh. IC50

Compared with `Cc1c(S(=O)(=O)c2ccc3[nH]ncc3c2)cc(C(=O)N[C@H](C)c2c(F)cccc2F)n1C` (single isomer, unassigned) [B.64], `Cc1c(S(=O)(=O)c2ccc3[nH]ncc3c2)cc(C(=O)NC(C)c2ccnn2C)n1C` (racemic) [B.172] is 6-fold higher in IC50: 4 nM for the first, 24 nM for the second.

Compared with `Cc1c(S(=O)(=O)c2cc(Cl)c3[nH]ncc3c2)cc(C(=O)NCc2c(F)ccc3cnn(C4CC4)c23)n1C` [B.79], `Cc1c(S(=O)(=O)c2cc(F)c3[nH]ncc3c2)cc(C(=O)NCc2c(F)ccc3cnn(C4CC4)c23)n1C` [B.63] is lower in IC50: 0.17 nM for the first, less than 0.15 nM for the second. The second is the more potent here.

Going from `Cc1c(S(=O)(=O)c2cc(Cl)c3[nH]ncc3c2)cc(C(=O)NCc2cccc3cnn(C4CC4)c23)n1C` [B.51] to `Cc1c(S(=O)(=O)c2cc(CO)c3[nH]ncc3c2)cc(C(=O)NCc2cccc3cnn(C4CC4)c23)n1C` [B.45], the IC50 rises from 0.22 nM to 4 nM (18-fold). The first is the more potent here.

First: Cc1c(S(=O)(=O)c2ccc3[nH]ncc3c2)cc(C(=O)NCc2cccc3c2ccc(=O)n3C)n1C [B.33]
Second: Cc1c(S(=O)(=O)c2ccc3[nH]ncc3c2)cc(C(=O)NCc2cccc3c2N(C)C(=O)C3)n1C [B.13]
The IC50 of the first is 1.7-fold lower: 0.35 nM for the first, 0.6 nM for the second.

First: Cc1c(S(=O)(=O)c2ccc3[nH]ncc3c2)cc(C(=O)NCc2c(F)cccc2OCCS(C)(=O)=O)n1C [B.108]
Second: Cc1c(S(=O)(=O)c2ccc3[nH]ncc3c2)cc(C(=O)NCc2ccccc2S(C)(=O)=O)n1C [B.56]
The IC50 of the first is lower: less than 0.15 nM for the first, 2.9 nM for the second.

`Cc1c(S(=O)(=O)c2ccc3[nH]ncc3c2)cc(C(=O)NCc2c(F)cncc2F)n1C` [B.107] and `Cc1c(S(=O)(=O)c2ccc3[nH]ncc3c2)cc(C(=O)NCc2c(F)ccc(=O)n2C)n1C` [B.179] cannot be ordered by IC50: 0.12 nM for the first, less than 0.15 nM for the second.

Compared with `Cc1c(S(=O)(=O)c2ccc3c(=O)[nH]ccc3c2)cc(C(=O)NCc2c(F)ccc3cnn(C4CC4)c23)n1C` [B.136], `Cc1c(S(=O)(=O)c2cc(C#N)c3[nH]ncc3c2)cc(C(=O)NCc2c(F)ccc3cnn(C4CC4)c23)n1C` [B.98] is higher in IC50: less than 0.15 nM for the first, 0.5 nM for the second. The first is the more potent here.

First: Cc1c(S(=O)(=O)c2cc(F)c3[nH]ncc3c2)cc(C(=O)N[C@@H](C)c2cccc3cnn(C4CC4)c23)n1C (single isomer, unassigned) [B.88]
Second: Cc1c(S(=O)(=O)c2cc(F)c3[nH]ncc3c2)cc(C(=O)NCc2c(F)ccc3cnn(C4CC4)c23)n1CCO [B.89]
The IC50 of the first is 220-fold higher: 22 nM for the first, 0.1 nM for the second. The second is the more potent here.

Compared with `Cc1c(S(=O)(=O)c2ccc3[nH]ncc3c2)cc(C(=O)NCc2ccc(=O)n(C)c2)n1C` [B.177], `Cc1c(S(=O)(=O)c2ccc3[nH]ncc3c2)cc(C(=O)NCc2ccc(=O)n(C)n2)n1C` [B.133] is 18-fold lower in IC50: 138 nM for the first, 7.6 nM for the second.

Going from `Cc1ncoc1CNC(=O)c1cc(S(=O)(=O)c2ccc3[nH]ncc3c2)c(C)n1C` [B.150] to `Cc1c(S(=O)(=O)c2ccc3[nH]ncc3c2)cc(C(=O)NCc2nccn2C)n1C` [B.131], the IC50 rises from 14 nM to 79 nM (5.6-fold).

First: CCn1nccc1CNC(=O)c1cc(S(=O)(=O)c2ccc3[nH]ncc3c2)c(C)n1C [B.166]
Second: Cc1c(S(=O)(=O)c2ccc3[nH]ncc3c2)cc(C(=O)NCc2c(Cl)ccn(C)c2=O)n1C [B.180]
The IC50 of the first is higher: 0.95 nM for the first, less than 0.15 nM for the second.

First: Cc1c(S(=O)(=O)c2ccc3c(cnn3C)c2)cc(C(=O)NCc2c(F)ccc3cnn(C4CC4)c23)n1CCCC#N [B.61]
Second: Cc1c(S(=O)(=O)c2ccc3[nH]ncc3c2)cc(C(=O)NCc2c(F)ccc3ncn(C4CC4)c23)n1C [B.18]
The IC50 of the first is higher: 2.6 nM for the first, less than 0.15 nM for the second.

Going from `Cc1cc(S(=O)(=O)c2cc(C(=O)NCc3c(F)ccc4ncn(C5CC5)c34)n(C)c2C)cc2cn[nH]c12` [B.27] to `Cc1c(S(=O)(=O)c2cc(F)c3[nH]ncc3c2)cc(C(=O)N[C@@H](C)c2cccc3cnn(C4CC4)c23)n1C` (single isomer, unassigned) [B.87], the IC50 rises from 0.21 nM to 0.82 nM (3.9-fold).

`Cc1c(S(=O)(=O)c2cnc3[nH]ncc3c2)cc(C(=O)NCc2cccc3cnn(C4CC4)c23)n1C` [B.37] and `Cc1c(S(=O)(=O)c2ccc3c(c2)CC(=O)N3)cc(C(=O)NCc2cccc3cnn(C)c23)n1C` [B.5] are within 1.5-fold of each other in IC50: 10 nM for the first, 8.7 nM for the second.

First: Cc1c(S(=O)(=O)c2ccc3[nH]ncc3c2)cc(C(=O)NC2CCc3cc(C(F)(F)F)ccc32)n1C (racemic) [B.71]
Second: Cc1c(S(=O)(=O)c2ccc3[nH]ncc3c2)cc(C(=O)NC2CCc3ncccc32)n1C (centres unmarked) [B.55]
The IC50 of the first is 6.4-fold higher: 36 nM for the first, 5.6 nM for the second. The second is the more potent here.

`Cc1c(S(=O)(=O)c2ccc3[nH]ncc3c2)cc(C(=O)NCc2ccc(F)c3cnn(C)c23)n1C` [B.36] and `Cc1c(S(=O)(=O)c2ccc3[nH]ncc3c2)cc(C(=O)NCc2c[nH]c(=O)c3cccnc23)n1C` [B.159] are within 1.5-fold of each other in IC50: 0.41 nM for the first, 0.43 nM for the second.

Going from `Cn1ncc(Cl)c1CNC(=O)c1cc(S(=O)(=O)c2cccc(C#N)c2)c2n1CCC2` [B.192] to `Cc1c(S(=O)(=O)c2cccc(C#N)c2)cc(C(=O)NCc2cccc3ncn(C4CC4)c23)n1C` [B.3], the IC50 falls from 98 nM to 5.3 nM (18-fold).

Going from `Cc1c(S(=O)(=O)c2ccc3[nH]ncc3c2)cc(C(=O)N[C@H](C)c2c(F)cccc2F)n1C` (single isomer, unassigned) [B.65] to `Cc1cc[nH]c(=O)c1CNC(=O)c1cc(S(=O)(=O)c2ccc3[nH]ncc3c2)c(C)n1C` [B.116], the IC50 falls from 65 nM to 4.6 nM (14-fold).

First: O=C(O)CCn1ncc2ccc(F)c(CNC(=O)c3cc(S(=O)(=O)c4cc(Cl)c5[nH]ncc5c4)c4n3CCC4)c21 [B.151]
Second: Cc1c(S(=O)(=O)c2cc(F)c3[nH]ncc3c2)cc(C(=O)NCc2cccc(CN3CCCC3)c2)n1C [B.59]
The IC50 of the first is lower: less than 0.15 nM for the first, 41 nM for the second. The first is the more potent here.

Compared with `Cc1c(S(=O)(=O)c2ccc3[nH]ncc3c2)cc(C(=O)NCc2c(F)ccc(OCc3ccc(C(=O)O)cc3)c2F)n1C` [B.123], `Cc1[nH]c(=O)c2ccccc2c1CNC(=O)c1cc(S(=O)(=O)c2ccc3[nH]nc(F)c3c2)c(C)n1C` [B.124] is higher in IC50: less than 0.15 nM for the first, 0.36 nM for the second.
